Laboratory results as given in patent publication US20110176998A1, “IMAGING AND THERAPY OF VIRUS-ASSOCIATED TUMORS” (THE JOHNS HOPKINS UNIVERSITY, priority 2007, published 2011).

Legend:
[1] = system: EBV-positive lymphoblastoid cells (LCL); assay: immunofluorescence assay for BZLF1 protein in LCL cells; format: cell-based, Epstein-Barr virus; details: 1 μM, 48 hours
Experimental: LCL cells were treated with 1 μM Ara-c for 48 hours. The cells were then washed with PBS, resuspended, and plated on polylysine glass slides. Indirect immunofluorescence assays and fluorescence microscopy were performed. The slides were fixed in methanol at −20° C., washed with PBS, then incubated in primary antibody anti-ZTA (1:200) (Argene), washed with PBS, followed by secondary antibody incubation of donkey rhodamine-conjugated IgG (Jackson Pharmaceuticals, west Grove, Pa.). Mounting solution with 4′,6′-diamidino-2-phenylindole (DAPI) (Vector Shield) was used to mark the nucleus of the cell. Slides were then observed and photographed with 40× objectives on a E800 microscope (NIKON) with CCD camera (Princeton Instruments) using Metamorph software (Universial Imaging-Molecular Devices).

Zta promoter = format: cell-based, Epstein-Barr virus; details: AGS cells
[2] = system: EBV viral DNA copy number; assay: real-time PCR for EBV viral DNA copy number (viral replication); format: cell-based, Epstein-Barr virus; details: for EBV viral replication (DNA copy number): LCL and SNU719 cells, 1 μM, 48 hours
Experimental: Genomic DNA from treated cells were extracted with the QIAamp DNA mini kit (Qiagen, CA) according to the manufacturer's instructions. PCRs were set up in a volume of 50 μL with a TaqMan PCR core reagent kit (Perkin-Elmer Corp., Branchburg, N.J.). Fluorescent probes were custom synthesized by Perkin-Elmer Applied Biosystems. PCR primers were synthesized by Gibco BRL (Frederick, Md.). Each reaction contained 5 μL of 10× buffer A (4 mM MgCl2), amplification primers (300 nM), fluorescent probe (25 nM), dATP, dCTP, and dGTP (200 μM each), dUTP (400 uM), 1.25 U of AmpliTaq Gold, and 0.5 U of AmpErase uracil N-glycosylase. Extracted genomic DNA was used for amplification. DNA amplification was carried out in a 96-well reaction plate in a Perkin-Elmer Applied Biosystems 7700 sequence detector. Each sample was analyzed in duplicate, and multiple negative water blanks were included in each analysis. A calibration curve was run in parallel and in duplicate with each analysis, with DNA extracted from the EBV-positive cell line Namalwa as a standard.
The EBV genome was quantified by real-time PCR with the ICycler system (Biorad, Hercules, Calif.). Template DNA was extracted with a mini blood DNA Kit (Qiagen, Valencia, Calif.). […]. A calibration curve was run in parallel and in duplicate with each analysis, using DNA extracted from the diploid EBV-positive cell line Namalwa containing two integrated viral genomes per cell as a standard. Amplification data were collected with an MyiQ single color real-time PCR Detector (Biorad) and analyzed with the MyiQ software developed by Biorad.

EBV-TK = assay: immunoblot for EBV-TK expression; format: cell-based, Epstein-Barr virus; details: Western blot
Experimental: To detect expression of the EBV-TK or EBV-ZTA, total cell protein was first extracted by treating cells with lysis buffer (0.05 M Tris, pH 7.6, 0.15 M NaCl, 1% triton-X 100, 2 mM EDTA) containing protease inhibitors for 10 minutes at 4° C. The following reagents were added to 1 mL of lysis buffer: 2 μL leupeptin (5 mg/mL), 1 μL 0.2 M Na3VO4, 1 μL NaF, 1 μL aprotinin (10 mg/ml), 1 μL, pepstatin (2 mM), and 10 μL PMSF (100 mM) for 10 minutes at 4° C. Following centrifugation, the supernatant was collected and stored at −80° C. Protein concentration was determined with the BCA Protein Assay Kit (Pierce, Rockford, Ill.) according to the manufacturer's instructions. A 10 μg aliquot of total cellular protein was fractionated on a 7.5% SDS-polyacrylamide gel. Proteins were transferred to PROTRAN nitrocellulose membrane (Schleicher & Schuell, Keene, N.H.). The membranes were blocked with 5% blotting grade non-fat dry milk (Bio-rad, Hercules, Calif.) in PBS with 0.1% TWEEN-20 (PBS-T) at 4° C. overnight. […] The membranes were washed twice and proteins were detected with ECL Western Blotting Detection reagents (Amersham Pharmacia Biotech). […]

BZLF1 protein (ZTA) = assay: Western blot / immunoblot for ZTA (BZLF1 protein) in EBV positive cell lines; format: cell-based, Epstein-Barr virus
Experimental: To detect expression of the EBV-TK or EBV-ZTA, total cell protein was first extracted by treating cells with lysis buffer (0.05 M Tris, pH 7.6, 0.15 M NaCl, 1% triton-X 100, 2 mM EDTA) containing protease inhibitors for 10 minutes at 4° C. The following reagents were added to 1 mL of lysis buffer: 2 μL leupeptin (5 mg/mL), 1 μL 0.2 M Na3VO4, 1 μL NaF, 1 μL aprotinin (10 mg/ml), 1 μL, pepstatin (2 mM), and 10 μL PMSF (100 mM) for 10 minutes at 4° C. Following centrifugation, the supernatant was collected and stored at −80° C. Protein concentration was determined with the BCA Protein Assay Kit (Pierce, Rockford, Ill.) according to the manufacturer's instructions. A 10 μg aliquot of total cellular protein was fractionated on a 7.5% SDS-polyacrylamide gel. Proteins were transferred to PROTRAN nitrocellulose membrane (Schleicher & Schuell, Keene, N.H.). The membranes were blocked with 5% blotting grade non-fat dry milk (Bio-rad, Hercules, Calif.) in PBS with 0.1% TWEEN-20 (PBS-T) at 4° C. overnight. The membranes were then washed with PBS-T twice followed by incubation with 1/1,000-diluted rabbit anti-TK sera from a rabbit immunized with a synthetic EBV-TK peptide ([…]) or anti-ZTA monoclonal antibody (Argene, North Massapequa, N.Y.) at room temperature for 1 hour. After washing, the membranes were incubated with HRP-conjugated goat anti-rabbit IgG antibodies or HRP-conjugated goat anti-mouse IgG antibodies (Amersham Pharmacia Biotech, Piscataway, N.J.) at a 1/5,000 dilution in PBS-T at room temperature for 1 hour. The membranes were washed twice and proteins were detected with ECL Western Blotting Detection reagents (Amersham Pharmacia Biotech). The membranes were exposed to X-OMAT film (Kodak, Rochester, N.Y.) at room temperature.
For lytic induction studies, cells were seeded at 10^6/ml, and treated with test compounds for 48 hours. Control untreated cells were incubated in parallel.
Cells were washed with PBS twice. Total cellular protein was extracted with lysis buffer. Proteins were electrophoresed in polyacrylamide and then transferred onto a PROTRAN nitrocellulose membrane (Schleicher&Schuell, Keene, N.H.). Blots were probed with primary antibody (Ab) overnight at 4° C. HRP-conjugated secondary Ab was added after washing and detected by an enhanced chemiluminescence system (ECL) (Amersham). The following antibodies were used: anti-ZTA (Argene), anti-f3-actin (Sigma), anti-mouse (Sigma).

AGS-BX1 cells = assay: GFP assay in AGS-BX1 cells; details: 1 μM

## Nc1ccn([C@@H]2O[C@H](CO)[C@@H](O)[C@@H]2O)c(=O)n1 [Cytarabine]
[1]
  LCL cells induced into lytic infection: 40%
Zta promoter
  Zta promoter luciferase activity: induced
[2]
  EBV viral replication (DNA copy number): did not induce
[2]; listed as Ara-c
  EBV viral replication (DNA copy number): not amplified
EBV-TK
  EBV early lytic gene TK expression: induced
BZLF1 protein (ZTA); AKATA(-BX1), LCL and SNU719 cells, 1 μM, 48 hours
  BZLF1 protein (ZTA) expression: induced

## COC(=O)Nc1nc2ccc(C(=O)c3ccccc3)cc2[nH]1 [Mebendazole]
AGS-BX1 cells
  GFP signal: induced GFP signal
Zta promoter; 1 μM
  induction of BZLF1 promoter: induced
[2]; LCL cells and Rael cells, 1 μM for 48 hours
  increase of EBV viral DNA copy number: 20 fold
BZLF1 protein (ZTA); LCL cells and AKATA cells
  ZTA expression: induced
